Measured values as given in publication PMC11898650, “Morpholine-Substituted Tetrahydroquinoline Derivatives as Potential mTOR Inhibitors: Synthesis, Computational Insights, and Cellular Analysis” (Cancers, 2025).

Columns and labels:
[1] = test system: lung cancer (A-549) cell line; test: MTT antiproliferative assay, A549; assay type: cell-based, human; conditions: 48 h; for IC50: Homo sapiens
Description: (§1) To evaluate the antiproliferative activity of the synthesized tetrahydroquinoline derivatives, three distinct human cancer cell lines were selected: breast cancer (MCF-7), lung cancer (A-549), and triple-negative breast cancer (MDA-MB-231). Furthermore, the synthesized compounds were tested on the VERO cell line to assess their potential toxicity. The VERO cell line, commonly derived from the kidney of an adult African green monkey, is widely used for toxicity studies. To evaluate the toxicity of the synthesized compounds, this cell line was utilized in the present study. The VERO cells were cultured using […] medium. The F-12 Ham’s medium was used to cultivate the lung cancer (A-549) cell lines. DMEM was used to cultivate the cell lines for breast cancer (MCF-7) and triple-negative breast cancer (MDA-MB-231). Because it feeds the cell line, 5% fatal bovine serum (FBS) was used to make the whole medium. To further protect the cell line from contamination, 0.5% pen–strep (penicillin + streptomycin) was added to all the mediums. All of these cell lines were cultivated in sterile, vented T-75 and/or T-25 flasks that were kept at 37 °C and supplied with 5% CO2. All of the compounds’ stock solutions were prepared in DMSO, and dilutions were made in the appropriate media so that the 96-well plates’ final DMSO content was not greater than 0.1%. First, each drug was tested in triplicate against every cell line at a 25 µM dose. […] On the first day, 1 × 10^4 cells were planted, and 24 h later, the chemicals were added. The MTT dye was added after the compounds and cells had been cultured for 48 h. After four hours, the MTT dye was taken out of the wells. Each well received 100 µL of DMSO to dissolve the formazan crystals that had formed as a result of the living cells, and absorbance at 570 nm was measured.

[2] = test system: breast cancer (MCF-7) cell line; test: MTT antiproliferative assay, MCF-7; assay type: cell-based; conditions: Homo sapiens, MCF7, 48 h
Description: as §1

[3] = test system: triple-negative breast cancer (MDA-MB-231) cell line; test: MTT antiproliferative assay, MDA-MB-231; assay type: cell-based, human; conditions: 48 h; for IC50: Homo sapiens
Description: as §1

VERO cell line = test: MTT toxicity assay, VERO; assay type: cell-based, African green monkey; conditions: Chlorocebus sabaeus, 48 h, VERO normal cells
Description: as §1

A549 lung cancer cells = test: Annexin V-FITC/PI apoptosis assay by flow cytometry; assay type: cell-based, human; conditions: 48 h
Description: A549 lung cancer cells were seeded in six-well plates and cultured in F-12 Ham’s medium supplemented with 5% FBS, 0.5% penicillin–streptomycin, and maintained in a 5% CO2 atmosphere at 37 °C for 24 h. […] Each condition was maintained in duplicate, with DMSO serving as the vehicle control, while 5-fluorouracil and Everolimus were used as positive controls. The treated cells, along with the DMSO control group, were incubated for 48 h. After incubation, the media were removed, and 1 mL of trypsin was added to each well for approximately one minute, followed by neutralization with 4 mL of fresh medium. Subsequent steps were carried out following the protocol of the Annexin V-FITC apoptosis detection kit (Ref No: BMS500FI, Lot No: 264043; Invitrogen, Waltham, MA, USA). The contents of each well were collected and transferred to centrifuge tubes, followed by centrifugation at 1000 RPM for 8 min. After removing the supernatant, the cell pellets were washed with PBS and subjected to another centrifugation step. The pellets were then resuspended in 1 mL of 1× binding buffer from the Annexin V-FITC apoptosis detection kit and incubated in the dark for 15–20 min. Subsequently, 500 µL of this cell suspension was transferred to individual plastic flow cytometry tubes. Each tube was supplemented with 10 µL of propidium iodide (PI) and 5 µL of Annexin V-FITC conjugate. The tubes were then incubated in the dark for 10 min before analyzing cell apoptosis using flow cytometry.

Structure (SMILES) | IC50 [1] [µM] | IC50 [2] [µM] | IC50 [3] [µM] | IC50 (VERO cell line) [µM] | apoptosis (early and last phase combined) (A549 lung cancer cells; A549, 3 µM) [%] | apoptosis (early and last phase combined) (A549 lung cancer cells; A549, 6 µM) [%] | Necrosis (A549 lung cancer cells; A549, 3 µM) [%] | Early Apoptosis (A549 lung cancer cells; A549, 6 µM) [%] | Late Apoptosis (A549 lung cancer cells; A549, 6 µM) [%] | Necrosis (A549 lung cancer cells; A549, 6 µM) [%] | A549 (IC50 µM) [1] | MDA-MB-231 (IC50 µM) [3]
O=c1[nH]cc(F)c(=O)[nH]1 [Compound 5-FU, 5-fluorouracil, reference compound] | 0.28 ± 0.008 | 0.72 ± 0.03 | 3.39 ± 0.37 | > 25 |  |  |  |  |  |  |  | 
O=C(Nc1ccc2c(c1)N(C(=O)C1CCOCC1)CCC2)c1ccc(OC(F)(F)F)cc1 [Compound 10a, N-(1-(Tetrahydro-2H-pyran-4-carbonyl)-1,2,3,4-tetrahydroquinolin-7-yl)-4-(trifluoromethoxy)benzamide] | 1.06 ± 0.02 | 4.34 ± 0.12 | 8.16 ± 0.33 | > 25 |  |  |  |  |  |  |  | 
O=C(Nc1ccc2c(c1)N(C(=O)C1CCCCC1)CCC2)c1ccc(OC(F)(F)F)cc1 [Compound 10b, N-(1-(Cyclohexanecarbonyl)-1,2,3,4-tetrahydroquinolin-7-yl)-4-(trifluoromethoxy)benzamide] | 4.72 ± 0.11 | > 25 | 6.37 ± 0.19 | 9.82 ± 0.08 |  |  |  |  |  |  |  | 
O=C(Nc1ccc2c(c1)N(C(=O)N1CCOCC1)CCC2)c1cc(F)cc(C(F)(F)F)c1 [Compound 10d, 3-Fluoro-N-(1-(morpholine-4-carbonyl)-1,2,3,4-tetrahydroquinolin-7-yl)-5-(trifluoromethyl)benzamide] | 0.062 ± 0.01 | 0.58 ± 0.11 | 1.003 ± 0.008 | > 25 | 29.35 | 77.66 |  |  |  |  |  | 
O=C(Nc1ccc2c(c1)N(C(=O)N1CCOCC1)CCC2)c1cc(C(F)(F)F)cc(C(F)(F)F)c1 [Compound 10e, N-(1-(Morpholine-4-carbonyl)-1,2,3,4-tetrahydroquinolin-7-yl)-3,5-bis(trifluoromethyl)benzamide] | 0.033 ± 0.003 | 2.89 ± 0.013 | 0.63 ± 0.02 | 8.86 ± 0.03 | 75.7 |  | 0.05 | 70.00 | 20.37 | 0.01 |  | 
O=C(Nc1ccc2c(c1)N(C(=O)N1CCCCC1)CCC2)c1cc(F)cc(F)c1 [Compound 10f, 3,5-Difluoro-N-(1-(piperidine-1-carbonyl)-1,2,3,4-tetrahydroquinolin-7-yl)benzamide] | > 25 | 4.47 ± 0.013 | > 25 | > 25 |  |  |  |  |  |  | no activity | no activity
O=C(Nc1ccc2c(c1)N(C(=O)N1CCCCC1)CCC2)c1cc(F)cc(C(F)(F)F)c1 [Compound 10g, 3-Fluoro-N-(1-(piperidine-1-carbonyl)-1,2,3,4-tetrahydroquinolin-7-yl)-5-(trifluoromethyl)benzamide] | 0.68 ± 0.13 | 2.5 ± 0.16 | > 25 | > 25 |  |  |  |  |  |  |  | 
O=C(Nc1ccc2c(c1)N(C(=O)N1CCCCC1)CCC2)c1cc(C(F)(F)F)cc(C(F)(F)F)c1 [Compound 10h, N-(1-(Piperidine-1-carbonyl)-1,2,3,4-tetrahydroquinolin-7-yl)-3,5 bis(trifluoromethyl)benzamide] | 3.36 ± 0.71 | 0.087 ± 0.007 | 1.29 ± 0.032 | > 25 |  |  |  |  |  |  |  | 
CO[C@H]1C[C@@H]2CC[C@@H](C)[C@@](O)(O2)C(=O)C(=O)N2CCCC[C@H]2C(=O)O[C@H]([C@H](C)C[C@@H]2CC[C@@H](OCCO)[C@H](OC)C2)CC(=O)[C@H](C)/C=C(\C)[C@@H](O)[C@@H](OC)C(=O)[C@H](C)C[C@H](C)/C=C/C=C/C=C/1C [Everolimus, reference compound] | 0.09 ± 0.01 | 5.86 ± 0.07 | 7.76 ± 0.37 | > 25 |  |  |  |  |  |  |  | 
